≈ marks a conversion by molar mass, not a printed value. Where two headings read alike, the source gives them in different places.
How the values were obtained:
Systemic toxicity (LD50) = assay: Systemic toxicity (LD50); parameters: species or system CD-1 female mice; conditions: female, CD-1, mouse, in vivo, iv, single-dose i.v., mice
Protocol: Systemic toxicity was examined after i.v injection of compound 7 to CD-1 female mice. Each mouse was injected with a 0.2 ml of freshly prepared compound 7 solution in saline. The doses of the compound administered per group were according to OECD guidelines (OECD, 2005).

[1] = system: methicillin-resistant S. epidermidis clinical isolate; assay: MIC, clinical isolate of methicillin-resistant S. epidermidis; format: cell-based; conditions: Staphylococcus epidermidis, read-out: MIC S. epidermidis
VISA = assay: In-vivo time dependent whole blood assay; parameters: species or system S. aureus; conditions: 12 mg/kg single i.v., CD-1 mice
Protocol: The derivative 7 and vancomycin were administered in a single intravenous injection (0.2 mL saline) to normal pathogen-free, female CD-1 mice. Doses of 12 mg kg^−1 were administered to three mice per data point. At the specified time-points (0, 3, 6, 12, 24 and 48 h) mice were euthanized (using ether), blood samples were collected from the ocular puncture. 60 μL of VISA in saline (0.9% NaCl; 10^6 CFU/mL) was added to 540 μL of whole blood which was drawn from the mice and incubated at 37° C. for 3 h. After the incubation period, antibacterial activity was determined by finding the bacterial titer in the infected blood.

[2] = system: Vancomycin-resistant E. faecalis (VanA, ATCC 51575); assay: MIC, micro-dilution broth, VRE (VanB); format: cell-based; conditions: Enterococcus faecalis, read-out: MIC VRE (VanB)
MR-VISA [3] = assay: In-vivo antibacterial activity, neutropenic mouse thigh infection; parameters: species or system Staphylococcus aureus; conditions: 12 mg/kg i.v., neutropenic mice, 24 h
Protocol: About six-week-old, female CD-1 mice (weight, ˜19-24 g) were used for the experiments. The mice were rendered neutropenic (˜100 […]) by injecting two doses of cyclophosphamide intraperitoneally 4 days (150 mg/kg) and 1 day (100 mg/kg) before the infection experiment. 50 μl of ˜10^7 CFU/ml concentration of the bacterial inoculum (MR-VISA) was injected into the thigh. One hour after inoculation, animals were treated intravenously with saline, vancomycin, linezolid and compound 7 at 12 mg/kg and 24 mg/kg of body weight (24 h total dosage). At 24 h post first treatment, cohorts of animals were euthanized (using ether) and the thighs were collected aseptically. The thigh was weighed (0.7 g-0.9 g) and placed into 10 ml of sterile saline and homogenized. The dilutions of the homogenate were plated onto agar plates, which were incubated overnight at 37° C. The bacterial titer was expressed as log10 CFU/g of thigh weight.

[4] = system: methicillin-resistant S. haemolyticus clinical isolate; assay: MIC, clinical isolate of methicillin-resistant S. haemolyticus; format: cell-based; conditions: Staphylococcus haemolyticus, read-out: MIC S. haemolyticus
[5] = system: Vancomycin intermediate resistant S. aureus; assay: MIC, micro-dilution broth, VISA; format: cell-based; conditions: VISA
Protocol: (§1) All test compounds were assayed in a micro-dilution broth format. Stock solutions were made by serially diluting the compounds using autoclaved millipore water or broth media. The antibacterial activity of the compounds was determined against methicillin-sensitive S. aureus (MSSA), methicillin-resistant S. aureus (MRSA), vancomycin-intermediate-resistant S. aureus (VISA), vancomycin-sensitive E. faecium (VSE) and vancomycin-resistant E. faecium (VRE). Bacteria, to be tested, were grown for about 10 h in the suitable media, MSSA, MRSA and VISA were grown in yeast-dextrose broth (about 1 g of beef extract, about 2 g of yeast extract, about 5 g of peptone and about 5 g of NaCl in about 1000 mL of sterile distilled water (pH-7)). For solid media, about 5% agar was used along with above mentioned composition. VSE and VRE were cultured in brain heart infusion broth (Himedia). The bacterial samples were freeze dried and stored at −80° C. About 5 μL of these stocks were added to about 3 mL of the nutrient broth and the culture was grown for about 6 h at about 37° C. prior to the experiments. This 6 h grown culture gives about 10^9 cfu/mL and this was determined by spread plating method. The 6 h grown culture was diluted to give effective cell concentration of about 10^5 cfu/mL which was then used for determining MIC. Compounds were serially diluted, in sterile water (2 fold dilution is employed) in a way that the working concentration was about 10 μM for MSSA, MRSA, and VSE while for VRE and VISA it was about 100 μM. About 50 μL of these serial dilutions were added to the wells of 96 well plate followed by the addition of about 150 μL of bacterial solution. The plates were then incubated at about 37° C., 150 rpm in the incubator and O.D at 600 nm was recorded at an interval of about 10 h and 24 h using TECAN (Infinite series, M200 pro) Plate Reader. Each concentration had triplicate values and the whole experiment was done at least twice and the MIC value was determined by taking the average of triplicate. O. D. values for each concentration and plotting it against concentration. The data was then subjected to sigmoidal fitting. From the curve the MIC value was determined, as the point in the curve where the O. D. was similar to that of control having no bacteria.

[6] = system: Methicillin-resistant S. aureus (ATCC 33591); assay: MIC, micro-dilution broth, MRSA; format: cell-based; conditions: Staphylococcus aureus, read-out: MIC MRSA
Protocol: as §1

MR-VISA [7] = assay: Pharmacodynamics against MR-VISA thigh infection, single dose; format: in vivo, Staphylococcus aureus; conditions: single i.v. dose; for ED50: 50% maximal bacterial killing; for EDstasis: 24-h colony count similar to pretreatment count
Protocol: Data are expressed as means±SD (error bars). A separate single-dose study of compound 7 was performed in neutropenic mice inoculated in the thigh with 50 μL of MR-VISA (10^7 CFU/ml). Infected animals were treated intravenously, at 1 h post infection, with 2 mg/kg, 4 mg/kg, 8 mg/kg and 12 mg/kg. At 24 h post inoculation mice were sacrificed and the thigh tissues were harvested for determination of bacterial titer as mentioned above.

CCCCCCCCCCN[C@]1(C)C[C@H](OC2C(O)[C@@H](O)C(CO)O[C@@H]2Oc2c3cc4cc2Oc2ccc(cc2Cl)[C@@H](O)[C@@H](NC(=O)[C@@H](CC(C)C)NC)C(=O)N[C@@H](CC(N)=O)C(=O)N[C@H]4C(=O)N[C@H]2C(=O)N[C@H](C(=O)N[C@H](C(=O)NCCCNC(=O)[C@H](O)[C@@H](O)[C@H](OC4OC(CO)C(O)C(O)[C@H]4O)[C@H](O)CO)c4cc(O)cc(O)c4-c4cc2ccc4O)[C@H](O)c2ccc(c(Cl)c2)O3)OC(C)[C@@H]1O (some centres unmarked) [Compound 7]
LD50 at 14 days (Systemic toxicity (LD50)): > 100 mg/kg | MIC [1]: 0.3 µM (≈ 0.596 µg/mL) | CFU/mL reduction (VISA; blood drawn up to 24 h, VISA): 3 log10 CFU/mL | time after dosing up to which blood showed antibacterial activity (VISA; blood incubated with VISA 3 h): 24 h | MIC [2]: 1 µM (≈ 1.99 µg/mL) | reduction in bacterial count from the initial titer (MR-VISA [3]): ~3.0 log10 CFU/g | MIC [4]: 0.41 µM (≈ 0.814 µg/mL) | MIC ([5]; Staphylococcus aureus, read-out: MIC VISA): 0.2 µM (≈ 0.397 µg/mL) | fold more active than vancomycin [5]: about 65 fold | MIC [6]: 0.3 µM (≈ 0.596 µg/mL) | ED50 (MR-VISA [7]; Staphylococcus aureus, VISA, in Mus musculus, iv, 24 h, neutropenic mice thigh, 24 h, read-out: ED50): 1.05 mg/kg | ED1-log kill (MR-VISA [7]; neutropenic mice thigh, 24 h): 3.7 mg/kg | ED2-log kill (MR-VISA [7]; neutropenic mice thigh, 24 h): 8.8 mg/kg | ED2.6-log kill (MR-VISA [7]; neutropenic mice thigh, 24 h): 12 mg/kg | ED50 (MR-VISA [7]; neutropenic mice thigh, 24 h): 1.0 mg/kg | EDstasis (MR-VISA [7]): 2.2 mg/kg | EDstasis (MR-VISA [7]; listed as compound 7): 2.22 mg/kg

— patent publication US20160303184A1, “VANCOMYCIN-SUGAR CONJUGATES AND USES THEREOF” (JAWAHARLAL NEHRU CENTRE FOR ADVANCED SCIENTIFIC RESEARCH …, priority 2013, published 2016)
